Assay results from PubChem BioAssay (NCI).
“And” between values parts separate entries of the source, which are not always exact repeats. Identical values can stand only once.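 Values below derive from 48-hour exposures of cells grown in 96-well plates, with endpoints linearly interpolated between the two concentrations bracketing the appropriate inhibition level. GI50 = concentration required for 50% inhibition of growth. TGI is the concentration that stops growth completely.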

Experiments:
Test in all cases: NCI-60 cell line screen, 48 h
NCI-H23 lung = tested on: NCI-H23 lung
NCI/ADR-RES ovarian = tested on: NCI/ADR-RES ovarian
LOX IMVI melanoma = tested on: LOX IMVI melanoma
RPMI-8226 leukemia = tested on: RPMI-8226 leukemia
MCF7 breast = tested on: MCF7 breast
NCI-H522 lung = tested on: NCI-H522 lung
OVCAR-5 ovarian = tested on: OVCAR-5 ovarian
SN12C renal = tested on: SN12C renal
CAKI-1 renal = tested on: CAKI-1 renal
SNB-75 CNS = tested on: SNB-75 CNS

Row | Structure (SMILES) | GI50 (NCI-H23 lung) | TGI (NCI-H23 lung) | GI50 (NCI/ADR-RES ovarian) | TGI (NCI/ADR-RES ovarian) | GI50 (LOX IMVI melanoma) | TGI (LOX IMVI melanoma) | GI50 (RPMI-8226 leukemia) | TGI (RPMI-8226 leukemia) | GI50 (MCF7 breast) | TGI (MCF7 breast) | GI50 (NCI-H522 lung) | TGI (NCI-H522 lung) | GI50 (OVCAR-5 ovarian) | TGI (OVCAR-5 ovarian) | GI50 (SN12C renal) | TGI (SN12C renal) | GI50 (CAKI-1 renal) | TGI (CAKI-1 renal) | GI50 (SNB-75 CNS) | TGI (SNB-75 CNS)
1 | O=C1C(Cl)=C(Oc2ccccc2)C(=O)c2ccccc21 | 9.49 µM | 24.5 µM | 7.75 µM | 37.9 µM | 9.98 µM | 22.7 µM | 2.69 µM | 11.4 µM | 7.3 µM | 25.2 µM | 1.51 µM | 2.96 µM | 16.7 µM | 31.7 µM | 11.2 µM | 29.5 µM | 1.8 µM | 4.03 µM | 1.93 µM | 12.9 µM
2 | CCOC(=O)Oc1c(OC)cc(C(=O)c2ccc(OC)c(OC(=O)CCl)c2OC)cc1OC | 3.86 µM | > 100 µM | 0.497 µM | 3.98 µM | 0.677 µM | > 100 µM | 1.98 µM | > 100 µM | 0.88 µM | > 100 µM | 0.264 µM | 1.31 µM | 5.88 µM | > 100 µM | 3.39 µM | > 100 µM | 3.76 µM | > 100 µM | 0.528 µM | > 100 µM
3 | O=c1oc2ccccc2cc1-c1ccc([N+](=O)[O-])cc1 |  | > 100 µM |  | > 100 µM |  | > 100 µM |  | > 100 µM |  | > 100 µM |  | > 100 µM |  | > 100 µM |  | > 100 µM |  | > 100 µM |  | > 100 µM
4 | CCNCCNc1cc(-c2ccc(Cl)cc2)c(C#N)c2nc3ccccc3n12 | 1.85 µM | 3.91 µM | 1.85 µM | 3.91 µM | 1.52 µM | 2.93 µM | 2.3 µM | 4.92 µM | 1.37 µM | 3.05 µM | 2 µM | 3.84 µM | 1.91 µM | 3.67 µM | 1.89 µM | 3.85 µM | 1.63 µM | 3.28 µM | 1.33 µM | 2.67 µM
5 | COc1c(O)cc2oc3cc(O)c(CC=C(C)C)c(O)c3c(=O)c2c1C/C=C(\C)CCC=C(C)C | 6.6 µM | 14.8 µM | 5.99 µM | 11.4 µM | 5.49 µM | 10.5 µM | 10.6 µM | 31.3 µM | 6.15 µM | 13.7 µM | 5.92 µM | 10.8 µM | 5.19 µM | 10.6 µM | 5.68 µM | 10.9 µM | 4.69 µM | 9.39 µM | 3.58 µM | 7.46 µM
6 | COc1cccc(-c2nc(-c3ccc(NS(=O)(=O)c4ccccc4)cc3)[nH]c2-c2ccnc(Br)c2)c1 | 3.06 µM | 17.2 µM | 3.44 µM | > 100 µM | 1.56 µM | 3.44 µM | 2.49 µM | 8.31 µM | 2.64 µM | > 100 µM | 2.93 µM | > 100 µM | 4.17 µM | > 100 µM | 3.03 µM | > 100 µM | 1.75 µM | 5.63 µM | 1.92 µM | > 100 µM
7 | c1ccc(Oc2c3ccccc3nc3ccccc23)cc1 | 3.71 µM | 14.3 µM | 7.32 µM | 27 µM | 1.73 µM | 11.8 µM | 4.75 µM | 24.6 µM | 2.48 µM | 17.5 µM | 2.22 µM | 10.7 µM | 3.7 µM | 13.7 µM | 5.27 µM | 16.8 µM | 6.07 µM | 19.5 µM | 3.49 µM | 14.2 µM
8 | Cc1ccc2c(/C=C/C(=O)c3cc(CN4CCOCC4)c(O)c4nc(C)ccc34)cc(CN3CCOCC3)c(O)c2n1 | 1.13 µM | 4.5 µM | 0.162 µM | > 100 µM | 0.454 µM | 1.79 µM | 0.489 µM | 3.86 µM | 0.356 µM | 2.74 µM | 0.332 µM | 2 µM | 1.55 µM | 13.1 µM | 0.683 µM | 12.4 µM | 0.297 µM | 1.53 µM | 0.938 µM | 16.6 µM
9 | COc1cc(-c2cc(C(=O)Nc3nc4ccccc4s3)nc3cc(-c4ccccc4)nn23)cc(OC)c1OC | 11.5 µM | > 100 µM | 19.6 µM | > 100 µM | 5.57 µM | > 100 µM | > 100 µM | > 100 µM | 22.4 µM | > 100 µM | 1.96 µM | 7.82 µM | > 100 µM | > 100 µM | 85.1 µM | > 100 µM | 53.7 µM | > 100 µM | 2.77 µM | 16.1 µM
10 | O=C1CC2(CCCc3sccc32)C(=O)N1 (stereo not drawn) |  | > 100 µM |  | > 100 µM |  | > 100 µM |  | > 100 µM |  | > 100 µM |  | > 100 µM |  | > 100 µM |  | > 100 µM |  | > 100 µM |  | > 100 µM
11 | CC1/C=C/C=C/CC/C=C/C=C/C=C/C=C/C(OC2OC(C)C(O)C(N)C2O)CC2OC(CC(O)C(O)CCC(O)CC(O)CC(O)CC(=O)OC(C)C(C)C1O)CC(O)C2C(=O)O (stereo not drawn) | 25.7 µg/mL | 35.6 µM and 50.3 µg/mL | 41 µg/mL | 45.2 µM and 93.8 µg/mL | 24.1 µg/mL | 33.1 µM and 47.9 µg/mL | 150 µg/mL | 45.2 µM and 150 µg/mL | 128 µg/mL | 36.4 µM and 150 µg/mL | 29.8 µg/mL | 34.3 µM and 53.7 µg/mL | 49.5 µg/mL | 35.8 µM and 135 µg/mL | 23.4 µg/mL | 30.3 µM and 43.8 µg/mL | 23.5 µg/mL | 31.8 µM and 44.5 µg/mL | 58.2 µg/mL | 40.6 µM and 150 µg/mL
12 | COc1ccc2c(CN3CCC(CO)CC3)cc3cc4c(cc3c2c1)OCO4 | 0.298 µM | 1.5 µM | 0.255 µM | 10.4 µM | 0.144 µM | 0.49 µM | 0.256 µM | 0.919 µM | 0.211 µM | 2.55 µM | 0.135 µM | 0.363 µM | 0.344 µM | 10.6 µM | 0.247 µM | 4.37 µM | 0.289 µM | 3.42 µM | 0.474 µM | 2 µM
13 | O=C(Nc1cccc(NS(=O)(=O)c2ccc(F)cc2)c1)c1ccc(-c2ccccc2)cc1 | 2.83 µM | 10.5 µM | 2.75 µM | 11.3 µM | 2.54 µM | 6.99 µM | 2.31 µM | 11.4 µM | 2.71 µM | 11.2 µM | 2.5 µM | 13 µM | 7.84 µM | 75.8 µM | 2.96 µM | 11.8 µM | 3.74 µM | > 100 µM | 6.07 µM | 44 µM
14 | O=C1NC(=O)[C@@H](c2cn3c4c(cccc24)CCC3)[C@@H]1c1c[nH]c2ccccc12 | 0.545 µM and 0.53 µM | > 10 µM and 16.8 µM | 0.327 µM and 0.369 µM | > 4.71 µM and 9.55 µM | 0.601 µM and 0.67 µM | > 10 µM and 14.8 µM | 0.379 µM and 2.93 µM | > 93.5 µM | 0.246 µM and 0.331 µM | > 10 µM and 12.8 µM | 0.201 µM and 0.365 µM |  | 0.652 µM and 1.1 µM | > 10 µM and 22.2 µM | 0.556 µM and 0.888 µM | > 10 µM and 15.9 µM | 0.332 µM and 0.518 µM | > 10 µM and 31.4 µM | 0.348 µM and 0.198 µM | 
